For 6 molecules, inhibition results are on record in ChEMBL document CHEMBL3132769, “Fragment growing to retain or alter the selectivity of anchored kinase hinge-binding fragments” (Medchemcomm, 2014).

For experiment [1], the target named is T1, Serine/threonine-protein kinase Chk1 (Homo sapiens) (UniProt O14757).
T1 sequence (whole entry): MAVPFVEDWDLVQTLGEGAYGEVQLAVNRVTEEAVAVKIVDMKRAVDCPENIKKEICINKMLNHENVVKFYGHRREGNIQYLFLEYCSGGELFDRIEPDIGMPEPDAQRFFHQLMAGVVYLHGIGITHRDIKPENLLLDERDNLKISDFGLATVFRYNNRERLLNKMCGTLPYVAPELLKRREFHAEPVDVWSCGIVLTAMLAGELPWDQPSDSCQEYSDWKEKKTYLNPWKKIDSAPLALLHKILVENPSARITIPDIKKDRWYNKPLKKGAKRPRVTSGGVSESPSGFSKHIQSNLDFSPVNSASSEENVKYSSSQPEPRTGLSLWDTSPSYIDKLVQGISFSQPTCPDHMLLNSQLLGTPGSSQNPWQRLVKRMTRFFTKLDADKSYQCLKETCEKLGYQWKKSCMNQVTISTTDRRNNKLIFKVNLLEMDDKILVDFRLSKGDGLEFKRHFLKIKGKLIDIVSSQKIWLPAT
In words: Inhibition of human full length CHK1 expressed in baculovirus assessed as substrate phosphorylation using fluorescence-labelled peptides as substrate at 2 uM after 90 mins by microfluidic peptide phosphorylation assay.

The target of experiment [2] is Tyrosine-protein kinase Fer (Homo sapiens) (UniProt P16591). Briefly: Inhibition of human FER catalytic domain expressed in baculovirus assessed as substrate phosphorylation using fluorescence-labelled peptides as substrate at 2 uM after 90 mins by microfluidic peptide phosphorylation assay.
Experiment [3] deals with Tyrosine-protein kinase Lck (Homo sapiens) (UniProt P06239). In words: Inhibition of human full length LCK expressed in baculovirus assessed as substrate phosphorylation using fluorescence-labelled peptides as substrate at 2 uM after 90 mins by microfluidic peptide phosphorylation assay.
Experiment [4] concerns the target Protein kinase C eta type (Homo sapiens) (UniProt P24723). Briefly: Inhibition of human truncated PKC eta expressed in baculovirus assessed as substrate phosphorylation using fluorescence-labelled peptides as substrate at 0.2 uM after 90 mins by microfluidic peptide phosphorylation assay.
For experiment [5], the target named is Calcium/calmodulin-dependent protein kinase type II subunit gamma (Homo sapiens) (UniProt Q13555). In words: Inhibition of human CAMK2 gamma catalytic domain expressed in baculovirus assessed as substrate phosphorylation using fluorescence-labelled peptides as substrate at 0.2 uM after 90 mins by microfluidic peptide phosphorylation assay.
The target in experiment [6] is T2, Serine/threonine-protein kinase 3 (Homo sapiens) (UniProt Q13188).
T2 sequence (whole entry): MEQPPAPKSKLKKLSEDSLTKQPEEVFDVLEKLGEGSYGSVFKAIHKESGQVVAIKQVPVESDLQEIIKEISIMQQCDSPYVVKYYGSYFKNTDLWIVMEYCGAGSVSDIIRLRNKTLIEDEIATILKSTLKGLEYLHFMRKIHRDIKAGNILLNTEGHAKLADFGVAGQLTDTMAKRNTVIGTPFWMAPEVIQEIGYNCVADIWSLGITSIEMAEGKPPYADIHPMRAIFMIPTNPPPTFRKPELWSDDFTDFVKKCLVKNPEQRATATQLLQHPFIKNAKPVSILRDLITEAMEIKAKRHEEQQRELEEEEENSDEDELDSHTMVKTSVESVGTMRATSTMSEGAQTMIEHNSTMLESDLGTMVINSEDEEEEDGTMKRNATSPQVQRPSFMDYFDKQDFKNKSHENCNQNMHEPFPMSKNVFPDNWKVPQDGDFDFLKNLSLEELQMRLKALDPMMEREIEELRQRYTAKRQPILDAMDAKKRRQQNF
Briefly: Inhibition of human full length MST2 expressed in baculovirus assessed as substrate phosphorylation using fluorescence-labelled peptides as substrate at 95 uM after 90 mins by microfluidic peptide phosphorylation assay.

Experiment [7] relates to Tyrosine-protein kinase ABL1 (Homo sapiens), P00519 [T315I]. In words: Inhibition of human truncated ABL T315I mutant expressed in baculovirus assessed as substrate phosphorylation using fluorescence-labelled peptides as substrate at 70 uM after 90 mins by microfluidic peptide phosphorylation assay.
In experiment [8] the target is Aurora kinase B (Homo sapiens) (UniProt Q96GD4). Briefly: Inhibition of human full length AurB expressed in baculovirus assessed as substrate phosphorylation using fluorescence-labelled peptides as substrate at 420 uM after 90 mins by microfluidic peptide phosphorylation assay.
For experiment [9], the target named is Protein kinase C eta type (Homo sapiens) (UniProt P24723). Briefly: Inhibition of human truncated PKC eta expressed in baculovirus assessed as substrate phosphorylation using fluorescence-labelled peptides as substrate at 420 uM after 90 mins by microfluidic peptide phosphorylation assay.
Experiment [10] has as its target Ribosomal protein S6 kinase alpha-1 (Homo sapiens) (UniProt Q15418). Briefly: Inhibition of human full length RSK1 expressed in baculovirus assessed as substrate phosphorylation using fluorescence-labelled peptides as substrate at 1000 uM after 90 mins by microfluidic peptide phosphorylation assay.
Experiment [11] concerns the target T3, Serine/threonine-protein kinase BRSK1 (Homo sapiens) (UniProt Q8TDC3).
T3 sequence (whole entry): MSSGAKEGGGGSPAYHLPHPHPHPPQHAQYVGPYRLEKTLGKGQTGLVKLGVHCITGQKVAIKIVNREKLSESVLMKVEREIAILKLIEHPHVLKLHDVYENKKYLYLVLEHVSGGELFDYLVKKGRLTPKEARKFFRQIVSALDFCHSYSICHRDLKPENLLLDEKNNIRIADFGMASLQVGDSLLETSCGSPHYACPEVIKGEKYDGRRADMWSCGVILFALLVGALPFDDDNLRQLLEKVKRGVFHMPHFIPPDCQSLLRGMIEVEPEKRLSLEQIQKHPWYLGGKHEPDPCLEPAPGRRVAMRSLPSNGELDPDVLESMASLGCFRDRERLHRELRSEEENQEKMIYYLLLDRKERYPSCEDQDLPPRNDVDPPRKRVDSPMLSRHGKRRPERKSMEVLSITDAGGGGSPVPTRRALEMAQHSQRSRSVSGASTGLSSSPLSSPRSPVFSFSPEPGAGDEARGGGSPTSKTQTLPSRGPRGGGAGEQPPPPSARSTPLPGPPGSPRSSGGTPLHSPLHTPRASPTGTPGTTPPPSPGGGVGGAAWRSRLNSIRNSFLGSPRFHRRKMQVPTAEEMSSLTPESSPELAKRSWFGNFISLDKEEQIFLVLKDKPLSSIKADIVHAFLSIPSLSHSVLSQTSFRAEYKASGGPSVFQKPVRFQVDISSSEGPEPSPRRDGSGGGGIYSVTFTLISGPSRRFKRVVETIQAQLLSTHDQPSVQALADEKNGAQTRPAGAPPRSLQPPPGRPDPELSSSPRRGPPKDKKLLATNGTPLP
The note with it: 1000 uM.
Description: Inhibition of human full length BRSK1 expressed in baculovirus assessed as substrate phosphorylation using fluorescence-labelled peptides as substrate at 1000 uM after 90 mins by microfluidic peptide phosphorylation assay

By inhibition is commonly meant how much of the control response was suppressed.

Sequence of Protein kinase C eta type (Homo sapiens) (P24723 whole entry, the tested form may be a part): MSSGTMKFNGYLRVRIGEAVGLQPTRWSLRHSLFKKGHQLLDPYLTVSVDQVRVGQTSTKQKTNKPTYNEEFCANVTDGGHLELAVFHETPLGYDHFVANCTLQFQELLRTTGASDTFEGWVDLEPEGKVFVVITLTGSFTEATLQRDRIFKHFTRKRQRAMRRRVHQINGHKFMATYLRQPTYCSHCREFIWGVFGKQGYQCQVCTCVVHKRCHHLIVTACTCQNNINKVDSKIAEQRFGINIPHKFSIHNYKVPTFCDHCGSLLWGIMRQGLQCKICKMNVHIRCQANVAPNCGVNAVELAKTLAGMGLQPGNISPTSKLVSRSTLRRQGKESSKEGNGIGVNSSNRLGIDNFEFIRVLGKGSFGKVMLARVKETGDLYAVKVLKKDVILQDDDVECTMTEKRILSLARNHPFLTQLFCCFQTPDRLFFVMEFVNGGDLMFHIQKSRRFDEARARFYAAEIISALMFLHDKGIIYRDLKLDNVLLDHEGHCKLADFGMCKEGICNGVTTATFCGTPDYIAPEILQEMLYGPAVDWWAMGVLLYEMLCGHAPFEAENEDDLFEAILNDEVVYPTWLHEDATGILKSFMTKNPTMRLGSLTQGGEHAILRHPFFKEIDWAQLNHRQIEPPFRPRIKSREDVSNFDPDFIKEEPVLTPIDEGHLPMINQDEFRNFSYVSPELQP
Sequence of Calcium/calmodulin-dependent protein kinase type II subunit gamma (Homo sapiens) (Q13555 whole entry, the tested form may be a part): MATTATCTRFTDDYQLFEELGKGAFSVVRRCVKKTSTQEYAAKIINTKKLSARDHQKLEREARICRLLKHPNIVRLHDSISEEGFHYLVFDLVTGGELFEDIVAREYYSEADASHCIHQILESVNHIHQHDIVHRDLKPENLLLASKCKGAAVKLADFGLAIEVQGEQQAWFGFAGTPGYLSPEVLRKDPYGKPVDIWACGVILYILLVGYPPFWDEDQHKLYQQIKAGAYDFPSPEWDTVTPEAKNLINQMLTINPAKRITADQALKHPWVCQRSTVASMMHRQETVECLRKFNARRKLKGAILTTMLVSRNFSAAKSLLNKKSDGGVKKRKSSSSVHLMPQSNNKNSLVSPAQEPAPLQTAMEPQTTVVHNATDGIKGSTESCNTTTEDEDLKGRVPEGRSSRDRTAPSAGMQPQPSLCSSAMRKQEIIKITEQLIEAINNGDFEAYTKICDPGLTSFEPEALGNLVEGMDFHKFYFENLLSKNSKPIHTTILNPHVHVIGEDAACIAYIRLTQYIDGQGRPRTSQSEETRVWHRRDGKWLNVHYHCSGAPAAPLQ
Sequence of Tyrosine-protein kinase Lck (Homo sapiens) (P06239 2-509 limits assumed): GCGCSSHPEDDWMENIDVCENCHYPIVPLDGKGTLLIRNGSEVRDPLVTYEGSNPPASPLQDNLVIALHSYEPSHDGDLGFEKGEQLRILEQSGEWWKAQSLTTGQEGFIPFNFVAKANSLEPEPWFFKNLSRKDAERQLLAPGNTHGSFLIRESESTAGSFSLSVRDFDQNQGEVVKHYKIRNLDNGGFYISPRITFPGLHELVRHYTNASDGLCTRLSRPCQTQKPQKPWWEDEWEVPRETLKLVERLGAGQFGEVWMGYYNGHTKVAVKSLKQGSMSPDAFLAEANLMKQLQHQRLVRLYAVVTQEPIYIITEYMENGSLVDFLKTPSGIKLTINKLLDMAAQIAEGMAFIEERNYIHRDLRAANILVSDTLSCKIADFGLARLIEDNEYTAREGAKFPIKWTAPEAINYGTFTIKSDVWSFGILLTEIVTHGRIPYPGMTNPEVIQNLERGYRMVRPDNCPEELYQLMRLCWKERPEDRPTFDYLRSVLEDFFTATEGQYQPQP
Sequence of Aurora kinase B (Homo sapiens) (Q96GD4 whole entry, the tested form may be a part): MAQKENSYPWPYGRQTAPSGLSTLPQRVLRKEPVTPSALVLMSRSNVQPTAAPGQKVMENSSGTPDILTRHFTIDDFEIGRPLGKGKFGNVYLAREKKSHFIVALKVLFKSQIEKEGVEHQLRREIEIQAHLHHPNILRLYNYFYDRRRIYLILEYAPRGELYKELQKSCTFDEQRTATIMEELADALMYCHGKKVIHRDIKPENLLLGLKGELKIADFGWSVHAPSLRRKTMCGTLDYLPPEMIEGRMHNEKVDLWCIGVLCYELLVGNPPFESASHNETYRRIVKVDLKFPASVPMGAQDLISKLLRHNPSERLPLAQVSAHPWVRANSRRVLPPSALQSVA
Sequence of Tyrosine-protein kinase Fer (Homo sapiens) (P16591 whole entry, looked up, the tested form may be a part): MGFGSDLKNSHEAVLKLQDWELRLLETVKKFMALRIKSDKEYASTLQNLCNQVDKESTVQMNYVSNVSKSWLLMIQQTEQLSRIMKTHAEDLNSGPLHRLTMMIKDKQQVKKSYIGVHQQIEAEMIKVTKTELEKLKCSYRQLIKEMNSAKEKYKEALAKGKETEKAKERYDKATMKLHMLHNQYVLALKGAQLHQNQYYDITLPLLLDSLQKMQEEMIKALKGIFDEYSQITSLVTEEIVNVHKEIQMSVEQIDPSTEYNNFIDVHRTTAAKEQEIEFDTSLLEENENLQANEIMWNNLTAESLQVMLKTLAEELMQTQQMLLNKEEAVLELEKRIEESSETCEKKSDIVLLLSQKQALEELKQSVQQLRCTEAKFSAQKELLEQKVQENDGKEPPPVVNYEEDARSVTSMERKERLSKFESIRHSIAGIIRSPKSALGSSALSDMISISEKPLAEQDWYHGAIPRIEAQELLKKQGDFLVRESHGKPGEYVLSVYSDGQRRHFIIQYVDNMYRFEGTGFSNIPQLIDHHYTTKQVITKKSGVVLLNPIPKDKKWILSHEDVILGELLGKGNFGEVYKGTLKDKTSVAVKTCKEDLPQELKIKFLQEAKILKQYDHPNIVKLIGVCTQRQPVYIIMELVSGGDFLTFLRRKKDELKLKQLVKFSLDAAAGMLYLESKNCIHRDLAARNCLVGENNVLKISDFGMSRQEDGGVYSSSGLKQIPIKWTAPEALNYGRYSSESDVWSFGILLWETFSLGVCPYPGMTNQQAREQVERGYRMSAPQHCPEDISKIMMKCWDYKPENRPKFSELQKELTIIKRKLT
Sequence of Ribosomal protein S6 kinase alpha-1 (Homo sapiens) (Q15418 whole entry): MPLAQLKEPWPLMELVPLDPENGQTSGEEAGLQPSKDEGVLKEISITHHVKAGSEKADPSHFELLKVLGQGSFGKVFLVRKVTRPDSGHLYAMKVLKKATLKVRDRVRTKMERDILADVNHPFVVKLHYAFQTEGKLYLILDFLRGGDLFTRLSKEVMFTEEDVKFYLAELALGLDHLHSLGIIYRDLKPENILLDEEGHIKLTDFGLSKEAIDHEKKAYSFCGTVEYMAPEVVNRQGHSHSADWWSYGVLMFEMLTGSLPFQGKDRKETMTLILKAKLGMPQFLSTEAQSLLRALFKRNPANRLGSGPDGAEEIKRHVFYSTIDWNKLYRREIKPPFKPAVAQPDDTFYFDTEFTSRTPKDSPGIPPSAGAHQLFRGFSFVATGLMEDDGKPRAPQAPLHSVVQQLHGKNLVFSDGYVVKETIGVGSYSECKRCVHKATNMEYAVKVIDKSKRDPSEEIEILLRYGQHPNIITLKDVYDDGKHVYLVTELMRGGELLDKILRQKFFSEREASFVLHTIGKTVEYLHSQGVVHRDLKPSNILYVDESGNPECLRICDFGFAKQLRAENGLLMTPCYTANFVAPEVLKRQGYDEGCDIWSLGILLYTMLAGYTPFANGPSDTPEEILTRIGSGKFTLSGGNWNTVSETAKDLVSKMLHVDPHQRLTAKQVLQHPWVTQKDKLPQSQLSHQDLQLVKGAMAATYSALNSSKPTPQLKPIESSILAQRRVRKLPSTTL

Consider `NC1CCN(c2ncnc3[nH]ccc23)CC1`, for which the results for the inhibition in experiment [1], in [2] and in experiment [3] were 1.5%, 13.5% and 4.5%, respectively.
On to `Clc1ccc(C2(c3ccc(-c4ncnc5[nH]cnc45)cc3)CCNCC2)cc1`, for which the results for the inhibition in experiment [4] and in [5] were 36.5% and 15%, respectively.
With `NCCc1ccc(-c2ncnc3[nH]cnc23)cc1`, in experiment [6], the inhibition came out at 86.5%.
In the case of `CNCc1ccc(-c2ncnc3[nH]cnc23)cc1`, the inhibition in experiment [7] is 22%.
For `c1nc(N2CCOCC2)c2nc[nH]c2n1`, the figures for the inhibition in experiment [8] and in experiment [9] were 96% and 82%, respectively.
Take `c1cnc2[nH]ccc2c1`: the inhibition is 60.5% in experiment [10] and 22% in experiment [11].
